Experimental data published in US9000036B2, “Compositions and methods for targeting of treating neoplasms” (priority 2006, dated 2015).

Tests used:
non-Hodgkin lymphoma = experiment: Patient case: malignant lymphoma, chemotherapy and intravenous target therapy; type: in vivo, human; conditions: one patient, DDP, Vp-16 and IF0 given together
Method: From November of 2002 to August of 2003, the radiotherapy at both axillary regions was administered with DT49Gy, the radiotherapy at both neck regions were administered with DT45Gy. […] The hydrops was drawn off by puncture from the right thoracic cavity, cytology reported: a large amount of lymphocytes and mesothelial cells. The patient was admitted to the hospital for further treatment.
The B ultrasonotrophy on Feb.
After the intravenous target therapy of Bruceantin, Tetrandrine, thalicarpine, maytansine seperately as target agents in combination with anti-cancer drugs by stannous chloride affection for a conjugate as complex for six courses (all kinds of anti-cancer drugs), the effect was obvious.
From Feb. 27, 2006 to Mar. 24, 2006, the intravenous target chemotherapy of Bruceantin and Tetrandrine separately as target agents in combination with anti-cancer drugs by stannous chloride effective for conjugate as complex was administered for a period of four week. On Mar.
The intravenous target chemotherapy of Bruceantin as targeting compound in combination with anti-cancer drugs by stannous chloride function for conjugate as complex was continued for several courses. The CT re-examination in Shandong Medical Imaging Research Institute on Jul.
During the hospitalization, the patient was administered Bruceantin as targeting compound, in combination with the medicaments of 16 times (Arsenic trioxide 5 mg) and 6 times (Ara-C 50 mg), 12 times (cyclophosphamide 0.1), 2 times and VP 16) 50 mg.

CD4 and CD8 [1] = experiment: Immunological pathological analysis of removed osteosarcoma tumor (CD4, CD8); type: in vivo; conditions: C57 mice, after three weeks iv treatment
Method: Osteosarcoma cell line growth in the culture for days to reach 10×10^3, then it is implanted into right arm of mice C57, wait about one week, tumor grow to 1 cm size. We prepared that Methylene Diphosphonate (MDP) 100 mg, Ara-C 50 mg and hapten DNP 0.5 mg were added into the stannous chloride 0.05 mg solution for mixture, incubate 5 minutes and produced a conjugated as complex. For treatment group: iv injection of this conjugated solution in 0.2 ml, two time/week for three weeks, for control group: iv injection of only 0.2 ml Ara-C, two time/week for three weeks. […] Surgical removed tumor for immunological pathological analysis, CD4 and CD8 show positive for MDP-Ara-C-DNP conjugated therapy group, control group show negative of CD4 and CD8.

CD4 and CD8 [2] = experiment: Immunological pathological analysis of removed lymphoma tumor (CD4, CD8); type: in vivo; conditions: C57 mice, after three weeks iv treatment
Method: (§1) Lymphoma cells line growth in the culture for days to reach about 10×10^3, then it is implanted into the right arm of mice C57, about one week, tumor grow to 1 cm size. We prepared that Bruceantin […], Adymicine 10 mg and hapten DNP 0.5 mg were added into the stannous chloride 0.05 mg solution for mixture incubate 5 minutes and produced a conjugated as complex. For treatment group: iv injection of this conjugated solution in 0.2 ml, two-time/week fro three weeks, for control group: iv injection of only 0.2 ml Ara-C, two-time/week for three weeks.

[3] = test system: D4 and CD8 antibodies activity; experiment: CytoxiLux analysis (flow cytometry, FIGS. 1A-B); type: cell-based; conditions: lymphoma C57 mice
Method: FIGS. 1A-B show flow cytometry results for CD4 and CD8 immunostaining cells
as §1

[4] = test system: gastric antrum cancer, intrahepatic lump; conditions: human, in vivo, iv
Method: The lateral lump by the lesser curvature of gastric antrum was administered a intratumoral chemotherapy for 3 times/week for three weeks, the lump at the head of pancreas region was administered intratumoral chemotherapy for 2 times/week fro two weeks, abdominal cavity was perfused for 6 times, in which 5-Fu+DDP 20 mg+IL-2 10^6 u were administered for 2 times, Bruceantin plus Adriamycin were perfused to abdominal cavity for 4 times in three weeks.
The intrahepatic lump was administered intratumoral chemotherapy for once. […] ETIFENIN (EHIDA) as target agent in combination with anticancer drugs plus stannous chloride were mixed for a conjugate as a complex, then it was administered intravenous for target therapy and repeated same therapy for 6 times (the formulated medicament mainly comprises: DDP 20 mg for 2 times, 5-Fu 0.5 for 2 times, Ara-C 25 mg for 2 times).

O=P1(NCCCl)OCCCN1CCCl (stereo not shown) [IF0]
bone marrow inhibition after chemotherapy (non-Hodgkin lymphoma): inhibited to the III degree

COc1cc([C@@H]2c3cc4c(cc3[C@@H](O[C@@H]3O[C@@H]5CO[C@@H](C)O[C@H]5[C@H](O)[C@H]3O)[C@H]3COC(=O)[C@H]23)OCO4)cc(OC)c1O [Vp-16]
bone marrow inhibition after chemotherapy (non-Hodgkin lymphoma): inhibited to the III degree

Nc1ccn([C@@H]2O[C@H](CO)[C@@H](O)[C@@H]2O)c(=O)n1 [Ara-C, Cytidine Arabinosyladenine]
CD4 and CD8 in removed tumor (CD4 and CD8 [1]): negative
CD4 and CD8 in removed tumor (CD4 and CD8 [2]): negative
index of D4 and CD8 antibodies activity [3]: 28%

N.N.[Cl][Pt][Cl] [DDP, Cisplatin]
bone marrow inhibition after chemotherapy (non-Hodgkin lymphoma): inhibited to the III degree

ETIFENIN (EHIDA) as target agent in combination with anticancer drugs
symptoms after treatment [4]: abdominal pain, abdominal distention, decreased appetite, accompanied by night sweating and debilitation
